Data reported in patent US10414754B2, “Indolizine compounds, a process for their preparation and pharmaceutical compositions containing them” (LES LABORATOIRES SERVIER, priority 2013, dated 2019).
Counter-ions that a name gives are not always drawn.

Assays:
[1] = target: T1, Bcl-2 protein (histag-Bcl-2, UniProtKB P10415) (Homo sapiens, UniProt P10415); assay: Inhibition of Bcl-2 by the fluorescence polarisation technique; assay type: binding; settings: fluorescence polarisation, 2 hours incubation; read-out: IC50 (nM) Bcl-2 FP
T1 construct: His tag
T1 sequence (P10415 whole entry): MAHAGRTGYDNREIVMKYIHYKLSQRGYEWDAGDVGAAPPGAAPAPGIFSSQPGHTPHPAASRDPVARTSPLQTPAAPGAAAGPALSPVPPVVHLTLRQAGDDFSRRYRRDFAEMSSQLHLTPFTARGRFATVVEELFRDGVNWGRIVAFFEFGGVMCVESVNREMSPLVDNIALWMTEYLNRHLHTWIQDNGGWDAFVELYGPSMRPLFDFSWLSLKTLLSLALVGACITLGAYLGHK
Experimental: The fluorescence polarisation tests were carried out on microplates (384 wells). The Bcl-2 protein, labelled (histag-Bcl-2 such that Bcl-2 corresponds to the UniProtKB® primary accession number: P10415), at a final concentration of 2.50×10^−8 M, is mixed with a fluorescent peptide (Fluorescein-[…]), at a final concentration of 1.00×10^−8M in a buffer solution (Hepes 10 mM, NaCl 150 mM, Tween20 0.05%, pH 7.4), in the presence or absence of increasing concentrations of test compounds. After incubation for 2 hours, the fluorescence polarisation is measured.

[2] = tested on: RS4;11 leukaemia tumour line; assay: In vitro cytotoxicity (MTT) on RS4;11; assay type: cell-based; settings: Homo sapiens; RS4;11 cells, 48 hours exposure
Experimental: The cytotoxicity studies were carried out on the RS4;11 leukaemia tumour line.
The cells are distributed onto microplates and exposed to the test compounds for 48 hours.
The cell viability is then quantified by a colorimetric assay, the Microculture Tetrazolium Assay (Cancer Res., 1987, 47, 939-942).

| Compound | IC50 [1] | IC50 [2] |
| --- | --- | --- |
| C[C@@H]1Cc2ccccc2CN1C(=O)c1cc2c(cc1-c1cc(C(=O)N(c3ccc(O)cc3)c3ccc(OCCN4CCOCC4)c(F)c3)c3ccccn13)OCO2 [Example 17, N-{3-Fluoro-4-[2-(morpholin-4-yl)ethoxy]phenyl}-N-(4-hydroxyphenyl)-3-(6-{[(3R)-3-methyl-3,4-dihydroisoquinolin-2(1H)-yl]carbonyl}-1,3-benzodioxol-5-yl)indolizine-1-carboxamide hydrochloride] | 3.4 nM | 11.8 nM |
| O=C(c1cc2c(cc1-c1cc(C(=O)N(c3ccc(O)cc3)c3ccc(OCCN4CCOCC4)c(F)c3)c3ccccn13)OCO2)N1CCc2ccccc2C1 [Example 18, 3-[6-(3,4-Dihydroisoquinolin-2(1H)-ylcarbonyl)-1,3-benzodioxol-5-yl]-N-{3-fluoro-4-[2-(morpholin-4-yl)ethoxy]phenyl}-N-(4-hydroxyphenyl)indolizine-1-carboxamide hydrochloride] | 7.5 nM | 47.7 nM |
| Cc1ccc(C(=O)N2Cc3ccccc3C[C@H]2CCN2CCOCC2)c(-c2cc(C(=O)N(c3ccccc3)c3ccc(O)cc3)c3n2CCCC3)c1 [Example 19, N-(4-Hydroxyphenyl)-3-(5-methyl-2-{[(3S)-3-[2-(morpholin-4-yl)ethyl]-3,4-dihydroisoquinolin-2(1H)-yl]carbonyl}phenyl)-N-phenyl-5,6,7,8-tetrahydro-indolizine-1-carboxamide hydrochloride] | 8 nM | 235 nM |
| O=C(c1cc(-c2ccccc2C(=O)N2Cc3ccccc3C[C@H]2CCN2CCOCC2)n2c1CCCC2)N(c1ccccc1)c1ccc(O)cc1 [Example 20, N-(4-Hydroxyphenyl)-3-(2-{[(3S)-3-[2-(morpholin-4-yl)ethyl]-3,4-dihydroisoquinolin-2(1H)-yl]carbonyl}phenyl)-N-phenyl-5,6,7,8-tetrahydroindolizine-1-carboxamide hydrochloride] | 11.1 nM | 205 nM |
| C[C@@H]1Cc2ccccc2CN1C(=O)c1cc2c(cc1-c1cc(C(=O)N(c3ccncc3)c3ccc(O)cc3)c3ccccn13)OCO2 [Example 21, N-(4-Hydroxyphenyl)-3-(6-{[(3R)-3-methyl-3,4-dihydroisoquinolin-2(1H)-yl]carbonyl}-1,3-benzodioxol-5-yl)-N-(pyridin-4-yl)indolizine-1-carboxamide hydrochloride] | 4.6 nM | 25.3 nM |
| O=C(c1cc(-c2cc3c(cc2C(=O)N2Cc4ccccc4C[C@H]2CCN2CCOCC2)OCO3)n2cccnc12)N(c1ccccc1)c1ccc(O)cc1 [Example 22, N-(4-Hydroxyphenyl)-6-(6-{[(3S)-3-[2-(morpholin-4-yl)ethyl]-3,4-dihydroisoquinolin-2(1H)-yl]carbonyl}-1,3-benzodioxol-5-yl)-N-phenylpyrrolo[1,2-a]-pyrimidine-8-carboxamide hydrochloride] | 12.9 nM | 263 nM |
| N#Cc1cccc(N(C(=O)c2cc(-c3cc4c(cc3C(=O)N3Cc5ccccc5C[C@H]3CCN3CCOCC3)OCO4)n3c2CCCC3)c2ccc(O)cc2)c1 [Example 23, N-(3-Cyanophenyl)-N-(4-hydroxyphenyl)-3-(6-{[(3S)-3-[2-(morpholin-4-yl)ethyl]-3,4-dihydroisoquinolin-2(1H)-yl]carbonyl}-1,3-benzodioxol-5-yl)-5,6,7,8-tetrahydroindolizine-1-carboxamide hydrochloride] | 3.8 nM | 9.99 nM |
| O=C(c1cc(-c2cc3c(cc2C(=O)N2Cc4ccccc4C[C@H]2CCN2CCOCC2)OCO3)n2c1CCCC2)N(c1ccc(O)cc1)c1cccc(F)c1 [Example 24, N-(3-Fluorophenyl)-N-(4-hydroxyphenyl)-3-(6-{[(3S)-3-[2-(morpholin-4-yl)ethyl]-3,4-dihydroisoquinolin-2(1H)-yl]carbonyl}-1,3-benzodioxol-5-yl)-5,6,7,8-tetrahydroindolizine-1-carboxamide hydrochloride] | 6.2 nM | 28.4 nM |
| O=C(c1cc(-c2cc3c(cc2C(=O)N2Cc4ccccc4C[C@H]2CCN2CCOCC2)OCO3)n2c1CCCC2)N(c1ccc(O)cc1)c1ccc(F)c(F)c1 [Example 25, N-(3,4-Difluorophenyl)-N-(4-hydroxyphenyl)-3-(6-{[(3S)-3-[2-(morpholin-4-yl)ethyl]-3,4-dihydroisoquinolin-2(1H)-yl]carbonyl}-1,3-benzodioxol-5-yl)-5,6,7,8-tetrahydroindolizine-1-carboxamide hydrochloride] | 7.9 nM | 30 nM |
| O=C(c1cc(-c2cc3c(cc2C(=O)N2Cc4ccccc4C[C@H]2CCN2CCOCC2)OCO3)n2c1CCCC2)N(c1ccccc1)c1cccc(F)c1 [Example 26, N-(3-Fluorophenyl)-3-(6-{[(3S)-3-[2-(morpholin-4-yl)ethyl]-3,4-dihydro-isoquinolin-2(1H)-yl]carbonyl}-1,3-benzodioxol-5-yl)-N-phenyl-5,6,7,8-tetrahydro-indolizine-1-carboxamide hydrochloride] | 16.6 nM | 300 nM |
| O=C(c1cc(-c2cc(Cl)ccc2C(=O)N2Cc3ccccc3C[C@H]2CCN2CCOCC2)n2c1CCCC2)N(c1ccc(O)cc1)c1cccc(F)c1 [Example 27, 3-(5-Chloro-2-{[(3S)-3-[2-(morpholin-4-yl)ethyl]-3,4-dihydroisoquinolin-2(1H)-yl]carbonyl}phenyl)-N-(3-fluorophenyl)-N-(4-hydroxyphenyl)-5,6,7,8-tetrahydroindolizine-1-carboxamide hydrochloride] | 7.7 nM | 44.1 nM |
| COc1ccc(C(=O)N2Cc3ccccc3C[C@H]2CCN2CCOCC2)c(-c2cc(C(=O)N(c3ccccc3)c3ccc(O)cc3)c3n2CCCC3)c1 [Example 28, N-(4-Hydroxyphenyl)-3-(5-methoxy-2-{[(3S)-3-[2-(morpholin-4-yl)ethyl]-3,4-dihydroisoquinolin-2(1H)-yl]carbonyl}phenyl)-N-phenyl-5,6,7,8-tetrahydro-indolizine-1-carboxamide hydrochloride] | 8.8 nM | 112 nM |
| COc1ccc(-c2cc(C(=O)N(c3ccccc3)c3ccc(O)cc3)c3n2CCCC3)c(C(=O)N2Cc3ccccc3C[C@H]2CCN2CCOCC2)c1 [Example 29, N-(4-Hydroxyphenyl)-3-(4-methoxy-2-{[(3S)-3-[2-(morpholin-4-yl)ethyl]-3,4-dihydroisoquinolin-2(1H)-yl]carbonyl}phenyl)-N-phenyl-5,6,7,8-tetrahydro-indolizine-1-carboxamide hydrochloride] | 19 nM | 163 nM |
| C[C@@H]1Cc2ccccc2CN1C(=O)c1cc2c(cc1-c1cc(C(=O)N(c3ccc(O)cc3)c3ccc(CN4CCCC(F)(F)C4)cc3)c3ccccn13)OCO2 [Example 30, N-{4-[(3,3-Difluoropiperidin-1-yl)methyl]phenyl}-N-(4-hydroxyphenyl)-3-(6-{[(3R)-3-methyl-3,4-dihydroisoquinolin-2(1H)-yl]carbonyl}-1,3-benzodioxol-5-yl)indolizine-1-carboxamide hydrochloride] | 10.4 nM | 52.3 nM |
| C[C@@H]1Cc2ccccc2CN1C(=O)c1cc2c(cc1-c1cc(C(=O)N(c3ccc(O)cc3)c3ccc4ncccc4c3)c3ccccn13)OCO2 [Example 31, N-(4-Hydroxyphenyl)-3-(6-{[(3R)-3-methyl-3,4-dihydroisoquinolin-2(1H)-yl]carbonyl}-1,3-benzodioxol-5-yl)-N-(quinolin-6-yl)indolizine-1-carboxamide hydrochloride] | 5.4 nM | 13.7 nM |
| Cc1cc(N(C(=O)c2cc(-c3cc4c(cc3C(=O)N3Cc5ccccc5C[C@H]3C)OCO4)n3ccccc23)c2ccc(O)cc2)ccn1 [Example 32, N-(4-Hydroxyphenyl)-3-(6-{[(3R)-3-methyl-3,4-dihydroisoquinolin-2(1H)-yl]carbonyl}-1,3-benzodioxol-5-yl)-N-(2-methylpyridin-4-yl)indolizine-1-carboxamide hydrochloride] | 5 nM | 32.7 nM |
| C[C@@H]1Cc2ccccc2CN1C(=O)c1cc2c(cc1-c1cc(C(=O)N(c3ccc(O)cc3)c3cnc4c(ccn4C)c3)c3ccccn13)OCO2 [Example 33, N-(4-Hydroxyphenyl)-3-(6-{[(3R)-3-methyl-3,4-dihydroisoquinolin-2(1H)-yl]carbonyl}-1,3-benzodioxol-5-yl)-N-(1-methyl-1H-pyrrolo[2,3-b]pyridin-5-yl)indolizine-1-carboxamide hydrochloride] | 4.6 nM | 6.33 nM |
| C[C@@H]1Cc2ccccc2CN1C(=O)c1cc2c(cc1-c1cc(C(=O)N(c3ccc(O)cc3)c3cccnc3)c3ccccn13)OCO2 [Example 34, N-(4-Hydroxyphenyl)-3-(6-{[(3R)-3-methyl-3,4-dihydroisoquinolin-2(1H)-yl]carbonyl}-1,3-benzodioxol-5-yl)-N-(pyridin-3-yl)indolizine-1-carboxamide hydrochloride] | 5.6 nM | 27.3 nM |
| C[C@@H]1Cc2ccccc2CN1C(=O)c1cc2c(cc1-c1cc(C(=O)N(c3ccc(O)cc3)c3ccc(CCN4CCCC(F)(F)C4)cc3)c3ccccn13)OCO2 [Example 35, N-{4-[2-(3,3-Difluoropiperidin-1-yl)ethyl]phenyl}-N-(4-hydroxyphenyl)-3-(6-{[(3R)-3-methyl-3,4-dihydroisoquinolin-2(1H)-yl]carbonyl}-1,3-benzodioxol-5-yl)indolizine-1-carboxamide hydrochloride] | 15.1 nM | 62.2 nM |
